Here are results for nine compounds from PMC2812926 (Journal of medicinal chemistry, 2008).

One assay has as its system HIV-1MDR-B. The class given is cell-based. The note with it: PHA-PBMC.
The test system of a further assay is HIV-1MDR-MM. The class given is cell-based. The settings on record: PHA-PBMC.
The next assay has as its system HIV-1MDR-JSL. The class given is cell-based. The settings on record: PHA-PBMC.
In the next assay the test system is HIV-1MDR-G. The class given is cell-based. The settings on record: PHA-PBMC.
The next assay deals with MDR/C. The class given is cell-based, HIV-1. The settings on record: PHA-PBMC.
In the next assay the test system is HIV-1MDR-TM. The class given is cell-based. The settings on record: PHA-PBMC.
A further assay concerns MDR/A. The class given is cell-based, HIV-1. The note with it: PHA-PBMC.
The target in another assay is HIV-1 protease (Human immunodeficiency virus type 1 group M subtype B, UniProt P04585). As to the kind of experiment: HIV-1 protease enzyme inhibitory assay. Format: biochemical.
Assay [1] relates to HIV-1ERS104pre (wild-type). As to the kind of experiment: Antiviral assay in PHA-PBMC, p24 Gag production, HIV-1ERS104pre. The class given is cell-based. The note with it: PBMC versus MT-2 cells.

For the compound `CC(C)(C)NC(=O)[C@@H]1CN(Cc2cccnc2)CCN1C[C@@H](O)C[C@@H](Cc1ccccc1)C(=O)N[C@H]1c2ccccc2C[C@H]1O.O` [IDV, Indinavir], the “number in parentheses: fold change of IC50 versus ERS104pre (wild-type)” value (shortened to “number in parentheses: fold change”) was above 38 in the assay with HIV-1MDR-B; above 38 in the assay on HIV-1MDR-MM; above 38 with HIV-1MDR-JSL; 11 in the assay on HIV-1MDR-G; above 38 in the assay on MDR/C; above 38 with HIV-1MDR-TM. Further, the “number in parentheses: fold change” value in the assay with MDR/A was above 38.
Take `COc1ccc(S(=O)(=O)N(CC(C)C)C[C@@H](O)[C@H](Cc2ccccc2)NC(=O)OC2COCCN(C)CCOC2)cc1` [Inhibitor 3m, (1S,2R)-{1-Benzyl-2-hydroxy-3-[isobutyl(4-methoxybenzenesulfonyl)amino]propyl}carbamic acid N-methyl-1,7-dioxa-4-azocyclodecan-9-yl ester]: the “potency change compared to 3i (enzyme Ki)” value (“potency change” below) on HIV-1 protease is reported as “no change in inhibitory activity”.
As for `COc1ccc(S(=O)(=O)N(CC(C)C)C[C@@H](O)[C@H](Cc2ccccc2)NC(=O)OC2COCCOCOCCOC2)cc1` [Inhibitor 3k, (1S,2R)-{1-Benzyl-2-hydroxy-3-[isobutyl(4-methoxybenzenesulfonyl)amino]propyl}carbamic acid 3,6,8,11-tetraoxacyclododecan-1-yl ester], on HIV-1 protease, the “potency change” value is “more than 2 fold”. In addition, the “potency enhancement compared to inhibitor 3j (enzyme Ki)” value on HIV-1 protease (compared to 3j) was found to be 5 fold.
Take `COc1ccc(S(=O)(=O)N(CC(C)C)C[C@@H](O)[C@H](Cc2ccccc2)NC(=O)OC2COCCS(=O)(=O)CCOC2)cc1` [Inhibitor 3l, (1S,2R)-{1-Benzyl-2-hydroxy-3-[isobutyl(4-methoxybenzenesulfonyl)amino]propyl}carbamic acid 3,9-dioxa-6-thiacyclodecan-1-yl 6,6-dioxide ester]: on HIV-1 protease, the “potency change” value is 9 fold.
Take `COc1ccc(S(=O)(=O)N(CC(C)C)C[C@@H](O)[C@H](Cc2ccccc2)NC(=O)O[C@@H]2CCCCOC2)cc1` [Inhibitor 3e, (1S,2R)-{1-Benzyl-2-hydroxy-3-[isobutyl(4-methoxybenzenesulfonyl)amino]propyl}carbamic acid (R)-oxepan-3-yl ester]: the “reduction in enzymatic inhibitory potency with respect to 3d” value on HIV-1 protease is reported as around 30 fold.
For `COc1ccc(S(=O)(=O)N(CC(C)C)C[C@@H](O)[C@H](Cc2ccccc2)NC(=O)O[C@@H]2CCOCOC2)cc1` [Inhibitor 3d, (1S,2R)-{1-Benzyl-2-hydroxy-3-[isobutyl(4-methoxybenzenesulfonyl)amino]propyl}carbamic acid (1R)-3,5-dioxacycloheptan-1-yl ester], the “factor by which values in PBMCs were greater than those with MT-2 cells” value in assay [1] was “about 4”.
`COc1ccc(S(=O)(=O)N(CC(C)C)C[C@@H](O)[C@H](Cc2ccccc2)NC(=O)O[C@H]2CCCOCC2)cc1` [Inhibitor 3f, (1S,2R)-{1-Benzyl-2-hydroxy-3-[isobutyl(4-methoxybenzenesulfonyl)amino]propyl}carbamic acid (S)-oxepan-4-yl ester]: the “reduction in enzymatic inhibitory potency with respect to 3d” value on HIV-1 protease is around 30 fold.
For the compound `CC(C)c1nc(CN(C)C(=O)N[C@H](C(=O)N[C@@H](Cc2ccccc2)C[C@H](O)[C@H](Cc2ccccc2)NC(=O)OCc2cncs2)C(C)C)cs1` [RTV], the “number in parentheses: fold change” value in the assay on HIV-1MDR-B, in the assay on HIV-1MDR-MM, with HIV-1MDR-JSL, in the assay on HIV-1MDR-G, in the assay with MDR/C and with HIV-1MDR-TM was above 29 each time. In addition, the “number in parentheses: fold change” value in the assay with MDR/A was above 29.
`COc1ccc(S(=O)(=O)N(CC(C)C)C[C@@H](O)[C@H](Cc2ccccc2)NC(=O)OC2COCOC2)cc1` [Inhibitor 3h, (1S,2R)-{1-Benzyl-2-hydroxy-3-[isobutyl(4-methoxybenzenesulfonyl)amino]propyl}carbamic acid 1,3-dioxan-5-yl ester]: the “number in parentheses: fold change” value in the assay with HIV-1MDR-B is recorded as 38; in the assay with HIV-1MDR-MM, 5; with HIV-1MDR-JSL it was 55; in the assay with HIV-1MDR-G it was 50; in the assay with MDR/C, 27; in the assay on HIV-1MDR-TM, 10. The “number in parentheses: fold change” value in the assay on MDR/A came out at 2.
